{"source": "patent US20180282339A1", "about": "(OLON S.P.A., priority 2015, published 2018)", "conditions": "conditions not specified at this place, b45 (heating at 60-120 ° C. for 1-12 hours gives amorphous form)", "experimental": "In particular the following tests have been made: • stability at 25° C./40% Relative Humidity for 7 days • stability at 40° C./75% Relative Humidity for 7 days • stability at 25° C./60% Relative Humidity for 7 days • stability at 60° C./40% Relative Humidity for 7 days", "data": [{"smiles": "C=CC(=O)N1CCC[C@@H](n2nc(-c3ccc(Oc4ccccc4)cc3)c3c(N)ncnc32)C1", "note": "[Form L, 1-[(3R)-3-[4-amino-3-(4-phenoxyphenyl)-1H-pyrazolo[3,4-d]pyrimidin-1-yl]piperidin-1-yl]prop-2-en-1-one]", "values": [{"measurement": "solid form conversion in some conditions", "value": "converts in Form A or in the amorphous form"}]}]}
